From patent US20210309658A1, “ARYL COMPOUNDS FOR THE TREATMENT AND PROPHYLAXIS OF BACTERIAL INFECTION” (Hoffmann-La Roche Inc., priority 2018, published 2021)
In brackets after ≈: the same amount, converted by molar mass. Read-outs that look alike come from different tables or passages of the source.

Columns and labels:
Assay type in all cases: cell-based
E. coli (BW25113) = assay: 50% growth inhibitory concentration (IC50) determination assay, E. coli; conditions: Escherichia coli, read-out: IC50 (μM) E. coli K12 BW25113
Method: (§1) The in vitro antimicrobial activity of the compounds against E. coli (BW25113, obtained from Coli Genetic Stock Center, #7636) and K. pneumoniae (ATCC10031) was determined according to the following procedure:
(§2) The assay used a 10-points Iso-Sensitest broth medium to measure quantitatively the in vitro activity of the compounds against E. coli BW25113 and K. pneumoniae ATCC 10031.
(§3) Stock compounds in DMSO were serially two-fold diluted (range from 50 to 0.097 μM final concentration) in 384 wells microtiter plates and inoculated with 49 μL the bacterial suspension in Iso-Sensitest broth medium to have a final cell concentration of ˜5×10^5 CFU/mL in a final volume/well of 50 μL/well. Microtiter plates were incubated at 35±2° C.
(§4) Bacterial cell growth was determined with the measurement of optical density at λ=600 nm each 20 minutes over a time course of 16 h.
(§5) Growth inhibition was calculated during the logarithmic growth of the bacterial cells with determination of the concentration inhibiting 50% (IC50) of the growth.

[1] = test system: K. pneumoniae (ATCC10031); assay: 50% growth inhibitory concentration (IC50) determination assay, K. pneumoniae; conditions: Klebsiella pneumoniae, read-out: IC50 (μM) K. pneumoniae ATCC10031
Method: as §1, §2, §3, §4, §5

E. coli (ATCC 25922) = assay: Minimal Inhibitory Concentration (MIC) assay; conditions: Escherichia coli, ATCC25922; CAMHB, 20 hours at 35° C.; read-out: MIC (μg/mL) E. coli ATCC 25922
Method: The in vitro potency of compounds to inhibit E. coli (ATCC 25922) growth was assessed by MIC (Minimal Inhibitory Concentration) assay. Samples were prepared from 10 mM DMSO stock solutions. After serial 2-fold dilution in DMSO in a master plate (Greiner, Cat No: 651201), 180 μL sterile distilled water was added to 20 μL each aliquot of the samples. Then 10 μL diluted compounds were transferred into a new assay plate (Costar, 3599).
The growth medium […] Mueller Hinton Broth (CAMHB) was prepared by adding the 20 mg per liter CaCl2 and 20 mg per liter MgCl2 into the MHB medium (Jianglai Company, sterilized).
Vials of each of the test microorganisms were maintained frozen in the vapor phase of a liquid nitrogen freezer. Took out the bacteria E. coli ATCC 25922 (KWIKSTIK, 0335K) from liquid nitrogen freezer, thawed it in room temperature, and diluted the bacterial in the CAMHB medium to achieve a final inoculum of 5×10^5 CFU/mL, 90 μL CAMHB with bacteria was dispensed to the assay plate and pipetted 5 times.
Then the assay plates were incubated for 20 hours at 35° C. in ambient air. Following incubation, the MIC (μg/mL), the lowest concentration of drug that inhibits visible growth of the microorganism was read and recorded throw the microscope.

[2] = BW25113, growth inhibition, Iso-Sensitest broth, OD 600 nm over 16 h
[3] = ATCC10031, growth inhibition, Iso-Sensitest broth, OD 600 nm over 16 h, * = detection limit

SMILES	IC50 (E. coli (BW25113); [2])	IC50 [1, 3]	MIC (E. coli (ATCC 25922))	IC50 (E. coli (BW25113); BW25113, 16 h)	IC50 ([1]; ATCC10031, 16 h)
CCNc1cc(F)cc2c1[nH]c1ncc(-c3cnc(N4CCNCC4)nc3)c(-n3ccc(C(F)(F)F)n3)c12 [Example 1.52, N-ethyl-6-fluoro-3-(2-piperazin-1-ylpyrimidin-5-yl)-4-[3-(trifluoromethyl)pyrazol-1-yl]-9H-pyrido[2,3-b]indol-8-amine]	1.22 µM	0.146 µM	–	–	–
CCNc1cc(F)cc2c1[nH]c1ncc(-c3cncc(C(=O)NCCOC)c3)c(-n3ccc(C(F)(F)F)n3)c12 [Example 3.06, 5-[8-(ethylamino)-6-fluoro-4-[3-(trifluoromethyl)pyrazol-1-yl]-9H-pyrido[2,3-b]indol-3-yl]-N-(2-methoxyethyl)pyridine-3-carboxamide]	1.45 µM	≤ 0.098 µM	0.734 µg/mL (≈ 1.36 µM)	–	–
CCNc1cc(F)cc2c1[nH]c1ncc(-c3cncc(CO)c3)c(-n3ccc(C(F)(F)F)n3)c12 [Example 1.36, [5-[8-(Ethylamino)-6-fluoro-4-[3-(trifluoromethyl)pyrazol-1-yl]-9H-pyrido[2,3-b]indol-3-yl]-3-pyridyl]methanol]	0.928 µM	≤ 0.098 µM	–	–	–
CCNc1cc(F)cc2c1[nH]c1ncc(-c3cnc(C)nc3)c(-n3ccc(C(F)(F)F)n3)c12 [Example 1.50]	0.422 µM	0.098 µM	0.534 µg/mL (≈ 1.17 µM)	–	–
CCNc1cc(F)cc2c1[nH]c1ncc(-c3cnc(OC4CNC4)nc3)c(-n3ccc(C(F)(F)F)n3)c12 [Example 1.23, 3-[2-(Azetidin-3-yloxy)pyrimidin-5-yl]-N-ethyl-6-fluoro-4-[3-(trifluoromethyl)pyrazol-1-yl]-9H-pyrido[2,3-b]indol-8-amine]	1.98 µM	≤ 0.098 µM	–	–	–
CCNc1cc(F)cc2c1[nH]c1ncc(-c3cnc([C@H](C)O)nc3)c(-n3ccc(C(F)(F)F)n3)c12 [Example 1.57, (1S)-1-[5-[8-(ethylamino)-6-fluoro-4-[3-(trifluoromethyl)pyrazol-1-yl]-9H-pyrido[2,3-b]indol-3-yl]pyrimidin-2-yl]ethanol]	0.631 µM	≤ 0.098 µM	0.284 µg/mL (≈ 0.585 µM)	–	–
CCNc1cc(F)cc2c1[nH]c1ncc(-c3cnc(NCCOC)nc3)c(-n3ccc(C(F)(F)F)n3)c12 [Example 1.13, N-Ethyl-6-fluoro-3-[2-(2-methoxyethylamino)pyrimidin-5-yl]-4-[3-(trifluoromethyl)pyrazol-1-yl]-9H-pyrido[2,3-b]indol-8-amine]	1.77 µM	0.287 µM	–	–	–
CCNc1cc(F)cc2c1[nH]c1ncc(-c3cnc4ccnn4c3)c(-n3ccc(C(F)(F)F)n3)c12 [Example 1.19, N-Ethyl-6-fluoro-3-pyrazolo[1,5-a]pyrimidin-6-yl-4-[3-(trifluoromethyl)pyrazol-1-yl]-9H-pyrido[2,3-b]indol-8-amine]	0.739 µM	0.196 µM	0.281 µg/mL (≈ 0.585 µM)	–	–
CCNc1cc(F)cc2c1[nH]c1ncc(-c3cncc(C(N)=O)c3)c(-n3ccc(C(F)(F)F)n3)c12 [Example 1.15, 5-[8-(Ethylamino)-6-fluoro-4-[3-(trifluoromethyl)pyrazol-1-yl]-9H-pyrido[2,3-b]indol-3-yl]pyridine-3-carboxamide]	0.289 µM	≤ 0.098 µM	0.142 µg/mL (≈ 0.294 µM)	–	–
CCNc1cc(F)cc2c1[nH]c1ncc(-c3cncc(Cc4nnc(C)o4)c3)c(-n3ccc(C(F)(F)F)n3)c12 [Example 1.58, N-ethyl-6-fluoro-3-[5-[(5-methyl-1,3,4-oxadiazol-2-yl)methyl]-3-pyridyl]-4-[3-(trifluoromethyl)pyrazol-1-yl]-9H-pyrido[2,3-b]indol-8-amine]	1.52 µM	≤ 0.098 µM	–	–	–
CNc1cc(F)cc2c1[nH]c1ncc(-c3cnc(OC)nc3)c(-n3ccc(C(F)(F)F)n3)c12 [Example 1.02, 6-Fluoro-3-(2-methoxypyrimidin-5-yl)-N-methyl-4-[3-(trifluoromethyl)pyrazol-1-yl]-9H-pyrido[2,3-b]indol-8-amine]	1.62 µM	0.108 µM	–	–	–
CCNc1cc(F)cc2c1[nH]c1ncc(-c3cncc(C(=O)NC4(COC)CC4)c3)c(-n3ccc(C(F)(F)F)n3)c12 [Example 3.07, 5-[8-(ethylamino)-6-fluoro-4-[3-(trifluoromethyl)pyrazol-1-yl]-9H-pyrido[2,3-b]indol-3-yl]-N-[1-(methoxymethyl)cyclopropyl]pyridine-3-carboxamide]	–	–	0.767 µg/mL (≈ 1.35 µM)	–	–
CCNc1cc(F)cc2c1[nH]c1ncc(-c3cnc(O[C@H]4CCNC4)nc3)c(-n3ccc(C(F)(F)F)n3)c12 [Example 1.56, N-ethyl-6-fluoro-3-[2-[(3S)-pyrrolidin-3-yl]oxypyrimidin-5-yl]-4-[3-(trifluoromethyl)pyrazol-1-yl]-9H-pyrido[2,3-b]indol-8-amine]	–	–	–	1 µM	≤ 0.098 µM
CCNc1cc(F)cc2c1[nH]c1ncc(-c3cncc(C#N)c3)c(-n3cc(C(N)=O)c(C(F)(F)F)n3)c12 [Example 4.01, 1-(3-(5-Cyanopyridin-3-yl)-8-(ethylamino)-6-fluoro-9H-pyrido[2,3-b]indol-4-yl)-3-(trifluoromethyl)-1H-pyrazole-4-carboxamide]	1.74 µM	≤ 0.098 µM	–	–	–
CCc1ncc(-c2cnc3[nH]c4c(NC)cc(F)cc4c3c2-n2ccc(C(F)(F)F)n2)cn1 [Example 1.47, 3-(2-Ethylpyrimidin-5-yl)-6-fluoro-N-methyl-4-[3-(trifluoromethyl)pyrazol-1-yl]-9H-pyrido[2,3-b]indol-8-amine]	1.29 µM	0.105 µM	–	–	–
CNc1cc(F)cc2c1[nH]c1ncc(-c3cncc(C#N)c3)c(-n3cc(C(F)(F)F)cn3)c12 [Example 1.08, 5-[6-Fluoro-8-(methylamino)-4-[4-(trifluoromethyl)pyrazol-1-yl]-9H-pyrido[2,3-b]indol-3-yl]pyridine-3-carbonitrile]	1.25 µM	0.102 µM	–	–	–
CCNc1cc(F)cc2c1[nH]c1ncc(-c3cnc4c(C#N)cnn4c3)c(-n3ccc(C(F)(F)F)n3)c12 [Example 1.59, 6-[8-(ethylamino)-6-fluoro-4-[3-(trifluoromethyl)pyrazol-1-yl]-9H-pyrido[2,3-b]indol-3-yl]pyrazolo[1,5-a]pyrimidine-3-carbonitrile]	1.87 µM	0.368 µM	–	–	–
CCNc1cc(F)cc2c1[nH]c1ncc(-c3cnc(NC4CCOC4)nc3)c(-n3ccc(C(F)(F)F)n3)c12 (centres unmarked) [Example 1.25, N-Ethyl-6-fluoro-3-[2-(tetrahydrofuran-3-ylamino)pyrimidin-5-yl]-4-[3-(trifluoromethyl)pyrazol-1-yl]-9H-pyrido[2,3-b]indol-8-amine]	–	–	0.751 µg/mL (≈ 1.43 µM)	–	–
CCNc1cc(F)cc2c1[nH]c1ncc(-c3cnc(OCC(C)(C)N)nc3)c(-n3ccc(C(F)(F)F)n3)c12 [Example 1.30, 3-[2-(2-Amino-2-methyl-propoxy)pyrimidin-5-yl]-N-ethyl-6-fluoro-4-[3-(trifluoromethyl)pyrazol-1-yl]-9H-pyrido[2,3-b]indol-8-amine]	1.56 µM	0.159 µM	–	–	–
CCNc1cc(F)cc2c1[nH]c1ncc(-c3cncc(C#N)c3)c(-n3cc(CO)c(C(F)(F)F)n3)c12 [Example 5.01, 5-[8-(ethylamino)-6-fluoro-4-[4-(hydroxymethyl)-3-(trifluoromethyl)pyrazol-1-yl]-9H-pyrido[2,3-b]indol-3-yl]pyridine-3-carbonitrile]	0.971 µM	≤ 0.098 µM	–	–	–
CCNc1cc(F)cc2c1[nH]c1ncc(-c3cnc(O[C@@H]4CCNC4)nc3)c(-n3ccc(C(F)(F)F)n3)c12 [Example 1.55, N-ethyl-6-fluoro-3-[2-[(3R)-pyrrolidin-3-yl]oxypyrimidin-5-yl]-4-[3-(trifluoromethyl)pyrazol-1-yl]-9H-pyrido[2,3-b]indol-8-amine]	–	–	–	1.03 µM	≤ 0.098 µM
CCNc1cc(F)cc2c1[nH]c1ncc(-c3cnc(OC4CCNC4)nc3)c(-n3ccc(C(F)(F)F)n3)c12 (centres unmarked) [Example 1.20, N-Ethyl-6-fluoro-3-(2-pyrrolidin-3-yloxypyrimidin-5-yl)-4-[3-(trifluoromethyl)pyrazol-1-yl]-9H-pyrido[2,3-b]indol-8-amine]	–	–	–	1.48 µM	≤ 0.098 µM
